{
  "source": "patent US20180250270A1",
  "about": "“MUSCARINIC COMBINATION AND ITS USE FOR COMBATING HYPOCHOLINERGIC DISORDERS OF THE CENTRAL NERVOUS SYSTEM” (Chase Pharmaceuticals Corporation, priority 2015, published 2018)",
  "key": {"[1]": {"details": "primate study; cited from earlier work"}, "[2]": {"test_system": "muscarinic receptors", "details": "cited from earlier work"}, "[3]": {"details": "cited from earlier work"}, "[4]": {"assay": "6-month double-blind, placebo-controlled, parallel group trial of xanomeline in patients with Alzheimer disease", "format": "in vivo, human", "details": "in view of Mirza et al 2003; i.e. 225 mg/day", "excerpt": "A close analog of tazomeline, the 3-(4-hexyloxy-1,2,5-thiadiazol-3-yl)-1-methyl-5,6-dihydro-2H-pyridine known as xanomeline and described in U.S. Pat. No. 5,043,345, the disclosure of which is incorporated herein by reference in its entirety, has been disclosed as a muscarinic acetylcholine receptor agonist with reasonable selectivity for the M1 and M4 subtypes. The efficacy of xanomeline, which stimulates muscarinic receptors in the brain and in the periphery was studied in patients with Alzheimer disease in a 6-month double-blind, placebo-controlled, parallel group trial. […] Such side effects prevented the use of doses of xanomeline that could achieve maximum anti-dementia efficacy and reflect stimulation of cholinergic receptors outside the brain.\nDose-limiting adverse events attending the use of drugs that stimulate cholinergic transmission, such as xanomeline, appear to primarily reflect the excessive stimulation of peripheral cholinergic receptors, especially those of the muscarinic type (mAChRs), such that in both healthy volunteers and Alzheimer's patients many of these side effects have been reported for xanomeline; in the patient population this led to a discontinuation rate higher than 50% while the effects on cognition were not robust and mainly seen at the highest doses tested (Mirza 2003)."}, "[5]": {"details": "cited from earlier work", "remark": "listed apart in the source"}, "[6]": {"test_system": "peripheral cholinergic receptors", "details": "rats; cited from earlier work"}, "[7]": {"test_system": "peripheral cholinergic receptors", "details": "monkeys; cited from earlier work"}, "[8]": {"details": "clinical trials for Alzheimer disease; cited from earlier work"}},
  "note": "Read-outs that look alike come from different tables or passages of the source.",
  "data": [
    {"smiles": "CCCCSc1nsnc1[C@H]1CN2CCC[C@H]1C2", "note": "[BuTAC, (5R,6R)-6-(3-butylthio-1,2,5-thiadiazol-4-yl)-1-azabicyclo[3.2.1]octane]", "values": [
      {"measurement": "vomiting", "setting": "[1]", "value": "induced vomiting"},
      {"measurement": "affinity for muscarinic receptors", "setting": "[2]", "value": "high affinity"}
    ]},
    {"smiles": "CCCCCCOc1nsnc1C1=CCCN(C)C1", "note": "[xanomeline, 3-(4-hexyloxy-1,2,5-thiadiazol-3-yl)-1-methyl-5,6-dihydro-2H-pyridine]", "values": [
      {"measurement": "MTD", "setting": "[3]; defined by Sramek et al.", "value": 100, "unit": "mg three times a day"},
      {"measurement": "minimum intolerated dose", "setting": "[3]; human, in vivo", "value": 115, "unit": "mg three times a day"},
      {"measurement": "maximum tolerated dose as considered in the context of the invention", "setting": "[4]", "value": 75, "unit": "mg three times per day"},
      {"measurement": "patients who discontinued treatment", "setting": "[5]; 75 mg xanomeline orally three times daily, mainly adverse events, predominantly gastrointestinal", "value": 59, "unit": "%"},
      {"measurement": "cognitive and behavioral symptoms of Alzheimer disease compared to placebo", "setting": "[5]; 6-month trial", "value": "significantly improve"},
      {"measurement": "discontinuation rate", "setting": "[5]; Alzheimer's patient population (Mirza 2003)", "value": "higher than 50%"},
      {"measurement": "side effects", "setting": "[5]; bradycardia, gastro-intestinal distress, excessive salivation, sweating", "value": "dose-dependent unacceptable side effects"}
    ]},
    {"smiles": "CO/N=C/C1=CCCN(C)C1", "note": "[milameline, (E)-N-methoxy-1-(1-methyl-1,2,5,6-tetrahydropyridin-3-yl)methanimine]", "values": [
      {"measurement": "doses producing central cholinergic action relative to peripheral action", "setting": "[6]", "value": "at doses slightly higher than those stimulating peripheral cholinergic receptors"},
      {"measurement": "doses producing central cholinergic action relative to peripheral action", "setting": "[7]", "value": "at doses slightly higher than those stimulating peripheral cholinergic receptors"},
      {"measurement": "maximum tolerated dose", "setting": "[8]", "value": 2, "unit": "mg four times per day"}
    ]}
  ]
}
